pKd: −log10 of the molar value. Entries after “also recorded” stand apart in the source; their conditions may differ. Counter-ions that a name gives are not always drawn. Like-named read-outs stand apart in the source and are kept apart here.
Assays:
SARS-CoV-2 [1] = test: combination therapy, viral load by RT-PCR (ORF1ab gene) in Calu-3 cells; format: cell-based; parameters: key to enhanced decrease of viral load, combination vs two single agents: Each combination that showed an enhanced decrease of viral load as compared with the two single agents is denoted by “E”; Combinations that showed a slight trend towards an enhanced decrease of viral load as compared with the two single agents is denoted by “(e)”; —; conditions: for decrease of viral load, agent alone: FIG. 31, mixed with SARS-CoV-2 (MOI 0.01) 1 hour at room temperature, RT-PCR (ORF1ab) 24 hours post infection, of the control
[2] = target: SARS-CoV-2 Spike S1 (RBD) (Severe acute respiratory syndrome coronavirus 2, UniProt P0DTC2); test: biochemical; format: binding; conditions: for Kd: read-out: Affinity (nM) of binding to SARS-COV2 Spike protein
SARS-CoV-2 [3] = format: cell-based
[4] = test system: human bronchial epithelial cells (HBE1); test: depletion of total cellular cholesterol in HBE1 cells; format: cell-based; conditions: HBE1, 48 hours; 50-400 nM and 1-20 μM; concentrations marked (*) in FIGS. 1, 2; p<0.05
Method: Total cellular cholesterol was measured by spectrophotometry, and plotted as the ratio of absorbance to total protein in μg. […] Significant reductions in cholesterol content (≥50%, p<0.05) are indicated (*).

`C[C@@H]1C[C@H]2[C@@H]3CCC4=CC(=O)C=C[C@]4(C)[C@@]3(F)[C@@H](O)C[C@]2(C)[C@@]1(O)C(=O)CO` [Dexamethasone, dexamethasone] was tested, and the “decrease of viral load, agent alone” value (SARS-CoV-2 [1]) was 46%.
`CC[C@H](C)C(=O)O[C@H]1C[C@H](O)C=C2C=C[C@H](C)[C@H](CC[C@@H](O)C[C@@H](O)CC(=O)O)[C@H]21` [INS101, Pravastatin Sodium] was tested, and the “binding to SARS-COV-2 S-protein (in words)” value (“binding” for short) ([2]; MST binding assay) was “weak binding; also recorded: none or very low affinity” and the Remarks ([2]; Table 1, binding to SARS-CoV-2 S1) was “No interaction/weak binder”.
For `CCC(C)(C)C(=O)O[C@H]1C[C@@H](C)C=C2C=C[C@H](C)[C@H](CC[C@@H]3C[C@@H](O)CC(=O)O3)[C@H]21` [INS102, Simvastatin], the “Average (percent cell viability)” value (SARS-CoV-2 [3]; Case A: compound added 1 h after infection, 72 h contact, 0.1 uM) was 5.506%, the “Average (percent cell viability)” value (SARS-CoV-2 [3]; Case A: compound added 1 h after infection, 72 h contact, 1 uM) was 7.304% and the “Average (percent cell viability)” value (SARS-CoV-2 [3]; Case A: compound added 1 h after infection, 72 h contact, 10 uM) was 17.48%. For the same molecule, the “Average (percent cell viability)” value (SARS-CoV-2 [3]; Case B: compound added 24 h after infection, 48 h contact, 0.1 uM) was 6.427%, the “Average (percent cell viability)” value (SARS-CoV-2 [3]; Case B: compound added 24 h after infection, 48 h contact, 1 uM) was 9.597% and the “Average (percent cell viability)” value (SARS-CoV-2 [3]; Case B: compound added 24 h after infection, 48 h contact, 10 uM) was 11.85%. For the same molecule, the “Average (percent cell viability)” value (SARS-CoV-2 [3]; Case C: compound added 48 h after infection, 24 h contact, 0.1 uM) was 3.967%, the “Average (percent cell viability)” value (SARS-CoV-2 [3]; Case C: compound added 48 h after infection, 24 h contact, 1 uM) was 2.16% and the “Average (percent cell viability)” value (SARS-CoV-2 [3]; Case C: compound added 48 h after infection, 24 h contact, 10 uM) was 6.117%. For the same molecule, the “Average (percent cell viability)” value (SARS-CoV-2 [3]; Case D: pre-treated 6 h, then infected 72 h, 0.1 uM) was 35.26%, the “Average (percent cell viability)” value (SARS-CoV-2 [3]; Case D: pre-treated 6 h, then infected 72 h, 1 uM) was 31.9% and the “Average (percent cell viability)” value (SARS-CoV-2 [3]; Case D: pre-treated 6 h, then infected 72 h, 10 uM) was 33.31%. For the same molecule, the “Average (percent cell viability)” value (SARS-CoV-2 [3]; Case E: pre-treated 24 h, then infected 72 h, 0.1 uM) was −0.98%, the “Average (percent cell viability)” value (SARS-CoV-2 [3]; Case E: pre-treated 24 h, then infected 72 h, 1.0 uM) was 29.28% and the “Average (percent cell viability)” value (SARS-CoV-2 [3]; Case E: pre-treated 24 h, then infected 72 h, 10.0 uM) was 46.90%. For the same molecule, the “Average (percent cell viability)” value (SARS-CoV-2 [3]; Case F: compound 1 h before infection (coinc 1 h), then virus 72 h, 0.1 uM) was 10.1%, the “Average (percent cell viability)” value (SARS-CoV-2 [3]; Case F: compound 1 h before infection (coinc 1 h), then virus 72 h, 1 uM) was 8.721% and the “Average (percent cell viability)” value (SARS-CoV-2 [3]; Case F: compound 1 h before infection (coinc 1 h), then virus 72 h, 10 uM) was 19.4%. The “enhanced decrease of viral load, combination vs two single agents” value (from here on “enhanced decrease of viral load”) (SARS-CoV-2 [1]; statin 0.1 μM + Dex 0.1 μM) was “—”, the “enhanced decrease of viral load” value (SARS-CoV-2 [1]; statin 0.1 μM + Dex 1 μM) was “E” and the “enhanced decrease of viral load” value (SARS-CoV-2 [1]; statin 0.1 μM + Dex 10 μM) was “E”. The “enhanced decrease of viral load” value (SARS-CoV-2 [1]; statin 0.1 μM + Remde 1) was “—”, the “enhanced decrease of viral load” value (SARS-CoV-2 [1]; statin 0.1 μM + Remde 10) was “—” and the “enhanced decrease of viral load” value (SARS-CoV-2 [1]; statin 0.1 μM + Remde 100) was “—”. For the same molecule, the “enhanced decrease of viral load” value (SARS-CoV-2 [1]; statin 1 μM + Dex 0.1 μM) was “E”, the “enhanced decrease of viral load” value (SARS-CoV-2 [1]; statin 1 μM + Dex 1 μM) was “E” and the “enhanced decrease of viral load” value (SARS-CoV-2 [1]; statin 1 μM + Dex 10 μM) was “—”. For the same molecule, the “enhanced decrease of viral load” value (SARS-CoV-2 [1]; statin 1 μM + Remde 1) was “—”, the “enhanced decrease of viral load” value (SARS-CoV-2 [1]; statin 1 μM + Remde 10) was “—” and the “enhanced decrease of viral load” value (SARS-CoV-2 [1]; statin 1 μM + Remde 100) was “E”. For the same molecule, the “enhanced decrease of viral load” value (SARS-CoV-2 [1]; statin 10 μM + Dex 0.1 μM) was “—”, the “enhanced decrease of viral load” value (SARS-CoV-2 [1]; statin 10 μM + Dex 1 μM) was “—” and the “enhanced decrease of viral load” value (SARS-CoV-2 [1]; statin 10 μM + Dex 10 μM) was “—”. For the same molecule, the “enhanced decrease of viral load” value (SARS-CoV-2 [1]; statin 10 μM + Remde 1) was “—”, the “enhanced decrease of viral load” value (SARS-CoV-2 [1]; statin 10 μM + Remde 10) was “—” and the “enhanced decrease of viral load” value (SARS-CoV-2 [1]; statin 10 μM + Remde 100) was “E”. The “reduction in cholesterol content” value [4] was ≥ 50%.
In the case of `CC(C)c1c(C(=O)Nc2ccccc2)c(-c2ccccc2)c(-c2ccc(F)cc2)n1CC[C@@H](O)C[C@@H](O)CC(=O)O` [INS104, Atorvastatin], the pKd [2] was 6.34 to 6.63, the Remarks [2] was “Strong Binding” and the S/N [2] was 8.5-8.7. For the same molecule, the “binding” value [2] was “bind with SARS-COV-2 S-protein at nanomolar (nM) concentrations”, the Kd [2] was 234 to 456 nM and the “decrease of viral load, agent alone” value (SARS-CoV-2 [1]) was 22%. For the same molecule, the “decrease in viral load, combination with remdesivir or dexamethasone vs monotherapies” value (SARS-CoV-2 [1]; FIGS. 30, 31, statin and SARS-CoV-2 (MOI 0.01) mixed 1 hour at room temperature, 24 hours post infection) was “synergistic”, the “enhanced decrease of viral load” value (SARS-CoV-2 [1]; statin 0.2 μM + Dex 0.1 μM) was “—” and the “enhanced decrease of viral load” value (SARS-CoV-2 [1]; statin 0.2 μM + Dex 1 μM) was “(e)”. For the same molecule, the “enhanced decrease of viral load” value (SARS-CoV-2 [1]; statin 0.2 μM + Dex 10 μM) was “—”, the “enhanced decrease of viral load” value (SARS-CoV-2 [1]; statin 0.2 μM + Remde 1) was “—” and the “enhanced decrease of viral load” value (SARS-CoV-2 [1]; statin 0.2 μM + Remde 10) was “—”. The “enhanced decrease of viral load” value (SARS-CoV-2 [1]; statin 0.2 μM + Remde 100) was “(e)”, the “enhanced decrease of viral load” value (SARS-CoV-2 [1]; statin 1 μM + Dex 0.1 μM) was “—” and the “enhanced decrease of viral load” value (SARS-CoV-2 [1]; statin 1 μM + Dex 1 μM) was “E”. The “enhanced decrease of viral load” value (SARS-CoV-2 [1]; statin 1 μM + Dex 10 μM) was “(e)”, the “enhanced decrease of viral load” value (SARS-CoV-2 [1]; statin 1 μM + Remde 1) was “—” and the “enhanced decrease of viral load” value (SARS-CoV-2 [1]; statin 1 μM + Remde 10) was “(e)”. For the same molecule, the “enhanced decrease of viral load” value (SARS-CoV-2 [1]; statin 1 μM + Remde 100) was “—”, the “enhanced decrease of viral load” value (SARS-CoV-2 [1]; statin 5 μM + Dex 0.1 μM) was “—” and the “enhanced decrease of viral load” value (SARS-CoV-2 [1]; statin 5 μM + Dex 1 μM) was “synergistic enhancement and E”. The “enhanced decrease of viral load” value (SARS-CoV-2 [1]; statin 5 μM + Dex 10 μM) was “enhancement was maintained at a lower level and E”, the “enhanced decrease of viral load” value (SARS-CoV-2 [1]; statin 5 μM + Remde 1) was “—” and the “enhanced decrease of viral load” value (SARS-CoV-2 [1]; statin 5 μM + Remde 10) was “enhancement in the decrease of viral load and E”. The “enhanced decrease of viral load” value (SARS-CoV-2 [1]; statin 5 μM + Remde 100) was “—”.
`CC[C@H](C)C(=O)O[C@H]1C[C@@H](C)C=C2C=C[C@H](C)[C@H](CC[C@@H]3C[C@@H](O)CC(=O)O3)[C@H]21` [INS105, Lovastatin] was tested, and the Kd ([2]; Table 2) was 529 to 929 nM.
For `CCC(C)(C)C(=O)O[C@H]1C[C@@H](C)C=C2C=C[C@H](C)[C@H](CC[C@@H](O)C[C@@H](O)CC(=O)O)[C@H]21` [INS106, Simvastatin Hydroxy Acid, Ammonium Salt], the Kd ([2]; Table 2) was 1570 to 2600 nM.
With `C[C@H](N[C@@H](CCc1ccccc1)C(=O)O)C(=O)N1CCC[C@H]1C(=O)O` [INS107] the “binding” value ([2]; MST binding assay) was “no binding is indicated”.
For Hydroxy Simvastatin [INS102-S], the “binding” value ([2]; MST binding assay) was “weak binding”.

Source: patent US20230172849A1, “INHALED STATINS FOR TREATMENT OF VIRAL RESPIRATORY DISEASES” (priority 2020, published 2023)
